Laboratory results reported in patent US6562828B1, “Amidine compounds” (Japan Tobacco Inc., priority 1998, dated 2003).
Counter-ions that a name gives are not always drawn.

Columns and labels:
Human FXa [1] = target: T1, Human FXa (Homo sapiens, UniProt P00742); assay: Determination of anti-factor Xa (FXa) activity, synthetic substrate S-2222; type: biochemical; conditions: S-2222, 37° C., pH 8.4, read-out: Experimental Example 1: anti-FXa activity, IC50
T1 construct: Human FXa [Enzyme research Laboratories (USA)] enzyme; purchased Enzyme Research Laboratories (USA)
Description: Determination of Anti-factor Xa (FXa) Activity
Human FXa [Enzyme research Laboratories (USA)] enzyme (40 μl, 0.16U/ml) and test compounds (40 l) adjusted to various concentrations were incubated in 0.1M Tris (Tris-hydroxymethyl-aminomethane) buffer (pH 8.4) containing 0.2M sodium chloride (herein to be referred to as 0.1 M tris-0.2M NaCl buffer) (40 μl) at 37° C. for 10 min. A synthetic substrate S-2222 (Daiichi Pure Chemical (Tokyo, Japan), 40 μl) adjusted to 0.8 mM was added and the mixture was incubated at 37° C. for 10 min. The reaction was stopped by addition of 60% acetic acid (40 μl) and absorbance at 405 nm was measured by Model 3550 (BIO-RAD). For the control, the solvent was used instead of the test compound.
Target sequence in this assay (P00742 235-488 limits assumed): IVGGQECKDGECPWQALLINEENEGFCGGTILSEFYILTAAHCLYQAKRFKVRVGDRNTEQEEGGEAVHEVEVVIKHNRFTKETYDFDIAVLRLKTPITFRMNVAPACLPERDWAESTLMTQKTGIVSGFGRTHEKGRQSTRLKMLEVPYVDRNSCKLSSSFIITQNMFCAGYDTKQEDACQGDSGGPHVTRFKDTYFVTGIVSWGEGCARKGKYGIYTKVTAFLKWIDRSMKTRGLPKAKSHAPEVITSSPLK
Target sequence in this assay (P00742 41-179 partner limits assumed): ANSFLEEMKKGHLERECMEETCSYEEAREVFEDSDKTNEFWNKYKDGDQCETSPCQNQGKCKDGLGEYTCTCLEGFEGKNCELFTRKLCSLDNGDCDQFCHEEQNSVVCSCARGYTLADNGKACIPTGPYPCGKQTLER

Human FIIa = target: T2, Human FIIa (Homo sapiens, UniProt P00734); assay: Determination of anti-factor IIa (FIIa) activity, synthetic substrate S-2238; type: biochemical; conditions: S-2238, 37° C., pH 8.4, read-out: Experimental Example 2: anti-FIIa activity, IC50
T2 construct: purchased Sigma

Human FXa [2] = target: T1, Human FXa; assay: Intravenous administration test in mouse, human FXa inhibitory activity in serum; type: in vivo; conditions: ICR mice, i.v., mean ± S.D., n = 3
Description: Intravenous Administration Tests in Mouse
A test compound dissolved in physiological saline was intravenously administered to ICR mice (body weight 20-30 g, 4-6 weeks old) and the activity of the test compound was evaluated based on the human FXa inhibitory activity in serum as an indicator.
At 10, 30, 60, 120 min from the intravenous administration, blood was taken from the eye ground using a hematocrit tube. The blood was centrifuged at 9000 G for 5 min and the obtained serum was used for the determination.
(§1) Human FXa inhibitory activity was measured as follows. Human FXa [Enzyme research Laboratories (USA)] enzyme (40 μl, 0.5 U/ml) and a 4-fold diluted plasma sample (40 μl) were incubated in 0.1M Tris-0.2M NaCl buffer (pH 8.4) (40 μl) at 37° C. for 10 min. A synthetic substrate S-2222 (Daiichi Pure Chemical (Tokyo, Japan), 40 μl) adjusted to 0.8 mM was added and the mixture was incubated at 37° C. for 5 min. The reaction was stopped by addition of 60% acetic acid (40 μl) and absorbance at 405 nm was measured by Model 3550 (BIO-RAD). For the control, serum or plasma obtained prior to blood sampling was used for measurement. Human FXa inhibitory activity was calculated as inhibition percentage (%) against control.
Target sequence in this assay (P00742 235-488 limits assumed): as the sequence (P00742 235-488 limits assumed) above
Target sequence in this assay (P00742 41-179 limits assumed): as the sequence (P00742 41-179 partner limits assumed) above

Human FXa [3] = target: T1, Human FXa; assay: Oral administration test in mouse, human FXa inhibitory activity in serum; type: in vivo; conditions: ICR mice, mean ± S.D., n = 3
Description: as §1
Target sequence in this assay (P00742 235-488 limits assumed): as the sequence (P00742 235-488 limits assumed) above
Target sequence in this assay (P00742 41-179 limits assumed): as the sequence (P00742 41-179 partner limits assumed) above
Oral Administration Tests in Mouse
A test compound dissolved in distilled water was orally administered to ICR mice (body weight 20-30 g, 4-6 weeks old) and the activity of the test compound was evaluated based on the human FXa inhibitory activity in serum as an indicator.
At 30, 60, 120, 180 min from the oral administration, blood was taken from the eye ground using a hematocrit tube. The blood was centrifuged at 9000 G for 5 min and the obtained serum was used for the determination. Human FXa inhibitory activity was determined in the same manner as in the test by intravenous administration.

SMILES	IC50 (Human FXa [1])	IC50 (Human FIIa)	further results
CC(=N)N1CCC(Oc2ccc(N(Cc3nc4cc(C(=N)N)ccc4n3CC(=O)Nc3ccc(OCc4ccccc4)cc3)C(=O)c3ccc(C(=O)O)cc3)cc2)CC1 [Example 18, 4-[N-[5-Amidino-1-(4-benzyloxyphenylcarbamoylmethyl)benzimidazol-2-ylmethyl]-N-[4-(1-acetimidoylpiperidin-4-yloxy)phenyl]carbamoyl]benzoic Acid Dihydrochloride]	10 nM	> 10000 nM	inhibition at 1 mg/kg (Human FXa [2]; 10 minutes): 73 ± 1%; inhibition at 1 mg/kg (Human FXa [2]; 30 minutes): 60 ± 4%; inhibition at 1 mg/kg (Human FXa [2]; 60 minutes): 40 ± 3%; inhibition at 1 mg/kg (Human FXa [2]; 120 minutes): 23 ± 5%
CCOC(=O)C1(COc2ccc3ccc(C(=N)N)cc3c2)CCN(c2ccncc2)CC1 [Example 40, 4-(2-Amidinonaphthalen-7-yloxymethyl)-1-(pyridin-4-yl)piperidine-4-carboxylic Acid Ethyl Ester Dihydrochloride]	500 nM	> 10000 nM	–
N=C(N)N1CCc2ccc(SCC3(C(=O)O)CCN(c4ccncc4)CC3)cc2C1 [Example 43, 4-(2-Amidino-1,2,3,4-tetrahydroisoquinolin-7-ylthiomethyl)-1-(pyridin-4-yl)piperidine-4-carboxylic Acid Dihydrochloride]	400 nM	> 10000 nM	–
N=C(N)N1CCc2ccc(SCCC3(C(=O)O)CCN(c4ccncc4)CC3)cc2C1 [Example 44, 4-[2-(2-Amidino-1,2,3,4-tetrahydroisoquinolin-7-ylthio)ethyl]-1-(pyridin-4-yl)piperidine-4-carboxylic Acid Dihydrochloride]	700 nM	> 10000 nM	–
CC(=N)N1CCC(Oc2ccc(OCc3nc4cc(C(=N)N)ccc4n3CC(=O)NC[C@H]3CC[C@H](C(=O)O)CC3)cc2)CC1 [Example 53, trans-4-[2-[4-(1-Acetimidoylpiperidin-4-yloxy)phenoxymethyl]-5-amidinobenzimidazol-1-ylacetylaminomethyl]cyclohexanecarboxylic Acid Dihydrochloride]	500 nM	> 10000 nM	–
CC(=N)N1CCC(Oc2ccc(OCc3nc4cc(C(=N)N)ccc4n3CC(=O)c3ccccc3)cc2)CC1 [Example 57, 2-[4-(1-Acetimidoylpiperidin-4-yloxy)phenoxymethyl]-1-phenacylbenzimidazole-5-carboxamidine Dihydrochloride]	50 nM	> 10000 nM	–
CCOC(=O)C(=O)N(Cc1nc2cc(C(=N)N)ccc2n1CC(=O)NC1CCCCC1)C1CCN(c2ccncc2)CC1 [Example 60, 1-(Cyclohexylcarbamoylmethyl)-2-[N-[1-(pyridin-4-yl)piperidin-4-yl]-N-ethoxalylaminomethyl]benzimidazole-5-carboxamidine Dihydrochloride]	900 nM	> 10000 nM	–
N=C(N)c1ccc2c(c1)nc(CN(C(=O)C(=O)O)C1CCN(c3ccncc3)CC1)n2CC(=O)NC1CCCCC1 [Example 61, N-[5-Amidino-1-(cyclohexylcarbamoylmethyl)benzimidazole-2-ylmethyl]-N-[l-(pyridin-4-yl)piperidin-4-yl]aminooxalic Acid Dihydrochloride]	300 nM	> 10000 nM	–
CCOC(=O)CN(Cc1nc2cc(C(=N)N)ccc2n1CC(=O)NC1CCCCC1)c1ccc(OC2CCN(C(C)=N)CC2)cc1 [Example 62, 2-[N-[4-(1-Acetimidoylpiperidin-4-yloxy)phenyl]-N-ethoxycarbonyl-methylaminomethyl]-1-(cyclohexylcarbamoylmethyl)benzimidazole-5-carboxamidine Dihydrochloride]	100 nM	> 10000 nM	–
CC(=N)N1CCC(Oc2ccc(N(Cc3nc4cc(C(=N)N)ccc4n3CC(=O)NC3CCCCC3)C(=O)c3ccc(C(=O)O)cc3)cc2)CC1 [Example 63, N-[5-Amidino-1-(cyclohexylcarbamoylmethyl)benzimidazol-2-ylmethyl]-N-[4-(1-acetimidoylpiperidin-4-yloxy)phenyl]carbamoylbenzoic Acid]	10 nM	> 10000 nM	inhibition at 10 mg/kg (Human FXa [3]; 30 minutes): 22 ± 6%; inhibition at 10 mg/kg (Human FXa [3]; 60 minutes): 14 ± 9%; inhibition at 10 mg/kg (Human FXa [3]; 120 minutes): 12 ± 10%; inhibition at 10 mg/kg (Human FXa [3]; 180 minutes): 12 ± 4%; inhibition at 0.3 mg/kg (Human FXa [2]; 10 minutes): 32 ± 2%; inhibition at 0.3 mg/kg (Human FXa [2]; 30 minutes): 16 ± 3%; inhibition at 0.3 mg/kg (Human FXa [2]; 60 minutes): 4 ± 3%; inhibition at 0.3 mg/kg (Human FXa [2]; 120 minutes): 1 ± 3%; inhibition at 1 mg/kg (Human FXa [2]; 10 minutes): 55 ± 3%; inhibition at 1 mg/kg (Human FXa [2]; 30 minutes): 46 ± 5%; inhibition at 1 mg/kg (Human FXa [2]; 60 minutes): 16 ± 7%; inhibition at 1 mg/kg (Human FXa [2]; 120 minutes): 3 ± 6%
COC(=O)c1ccc(C(=O)N(Cc2nc3cc(C(=N)N)ccc3n2CC(=O)NC2CCCCC2)c2ccc(OC3CCN(C(=N)N)CC3)cc2)cc1 [Example 64, 2-[N-[4-(1-Amidinopiperidin-4-yloxy)phenyl]-N-(4-methoxycarbonyl-benzoyl)aminomethyl]-1-(cyclohexylcarbamoylmethyl)benzimidazole-5-carboxamidine Dihydrochloride]	100 nM	> 10000 nM	inhibition at 1 mg/kg (Human FXa [2]; 10 minutes): 55 ± 2%; inhibition at 1 mg/kg (Human FXa [2]; 30 minutes): 43 ± 5%; inhibition at 1 mg/kg (Human FXa [2]; 60 minutes): 28 ± 6%
N=C(N)c1ccc2c(c1)nc(CN(C(=O)c1ccc(C(=O)O)cc1)c1ccc(OC3CCN(C(=N)N)CC3)cc1)n2CC(=O)NC1CCCCC1 [Example 65, N-[5-Amidino-1-(cyclohexylcarbamoylmethyl)benzimidazol-2-ylmethyl]-N-[4-(1-amidinopiperidin-4-yloxy)phenyl]carbamoylbenzoic Acid Dihydrochloride]	20 nM	> 10000 nM	inhibition at 1 mg/kg (Human FXa [2]; 10 minutes): 55 ± 1%; inhibition at 1 mg/kg (Human FXa [2]; 30 minutes): 34 ± 2%; inhibition at 1 mg/kg (Human FXa [2]; 60 minutes): 17 ± 2%
N=C(N)N1CCc2ccc(OCC3CCN(S(=O)(=O)NCc4ccccc4)CC3)cc2C1 [Example 83, N-Benzyl-4-(2-amidino-1,2,3,4-tetrahydroisoquinolin-7-yloxymethyl)piperidine-1-sulfonamide hydrochloride]	700 nM	> 10000 nM	–
N=C(N)N1CCc2ccc(OCC3CCN(c4ccncc4CCC(=O)O)CC3)cc2C1 [Example 89, 3-[4-[4-(2-Amidino-1,2,3,4-tetrahydroisoquinolin-7-yloxymethyl)piperidin-1-yl]pyridin-3-yl]propionic Acid Dihydrochloride]	200 nM	> 10000 nM	–
CCOC(=O)C1(COc2ccc3c(c2)CN(C(=N)N)CC3)CCN(c2ccc(C(=N)N)cc2)CC1 [Example 98, 4-(2-Amidino-1,2,3,4-tetrahydroisoquinolin-7-yloxymethyl)-1-(4-amidinophenyl)-piperidine-4-carboxylic Acid Ethyl Ester Dihydrochloride]	400 nM	> 10000 nM	–
CC(=N)N1CCC(Oc2ccc(N(Cc3nc4cc(C(=N)N)ccc4n3C/C=C/c3ccccc3)C(=O)c3ccc(C(=O)O)cc3)cc2)CC1 [Example 109, N-[5-Amidino-1-(3-phenyl-2-propenyl)benzimidazol-2-ylmethyl]-N-[4-(1-acetimidoylpiperidin-4-yloxy)phenyl]carbamoylbenzoic Acid Dihydrochloride]	200 nM	> 10000 nM	–
CCN=C(N)N1CCC(Oc2ccc(N(Cc3nc4cc(C(=N)N)ccc4n3CC(=O)NC3CCCCC3)C(=O)c3ccc(C(=O)O)cc3)cc2)CC1 [Example 112, N-[5-Amidino-1-(cyclohexylcarbamoylmethyl)benzimidazol-2-ylmethyl]-N-[4-[1-(N-ethylamidino)piperidin-4-yloxy]phenyl]carbamoylbenzoic Acid Dihydrochloride]	20 nM	> 10000 nM	inhibition at 1 mg/kg (Human FXa [2]; 10 minutes): 49 ± 1%; inhibition at 1 mg/kg (Human FXa [2]; 30 minutes): 41 ± 8%; inhibition at 1 mg/kg (Human FXa [2]; 60 minutes): 23 ± 11%
